# Assay results as given in patent US6710168B1, “Glycopeptide antibiotics, combinatorial libraries of glycopeptide antibiotics and methods of producing same” (The Trustees of the University of Princeton, priority 1999, dated 2004).
# Columns and labels:
# Assay type in all cases: cell-based
# [1] = tested on: Enterococcus faecium CL5137, VanA; assay: MIC susceptibility test; conditions: Enterococcus faecium CL5137, VanA; for MIC: read-out: MIC CL5137
# [2] = tested on: Enterococcus faecalis CL5244, VanB; assay: MIC susceptibility test; conditions: Enterococcus faecalis CL5244, VanB; for MIC: read-out: MIC CL5244
# Summary of the method: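 MTT-based broth microdilution in cation-adjusted Mueller-Hinton broth; two-fold 12-step dilutions […], inoculum 10^6 CFU/mL, 37° C for 24 h.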
# [3] = tested on: Enterococcus faecalis (ATCC 29212); assay: MIC susceptibility test, microdilution with MTT readout; conditions: Enterococcus faecalis ATCC29212; for MIC: read-out: MIC EF
# Summary of the method: (§1)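 Broth microdilution in cation-adjusted Mueller-Hinton broth, 12-step two-fold series from 5 μg/mL to […], mixed 1:1 with 10^6 CFU/mL cell suspension and incubated 24 h at 37 °C. MTT (1 mg/mL solution) is then added for 30 min (S. aureus, MRSA) or 2 h (E. faecalis strains). MIC = lowest concentration inhibiting growth.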
# [4] = tested on: Staphylococcus aureus (ATCC 29213); assay: as above; conditions: Staphylococcus aureus ATCC29213; for MIC: read-out: MIC SA
# Summary of the method: as §1
# [5] = tested on: Bacillus cereus (ATCC 11778); assay: as above; conditions: for MIC BC: Bacillus ceres ATCC11778; for MIC: Bacillus cereus, ATCC11778, read-out: MIC BC
# Summary of the method: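 Bacillus cereus ATCC® 11778 susceptibility was measured by broth microdilution in 96-well microplates using Cation Adjusted Mueller-Hinton broth. Samples were diluted two-fold from 5 μg/mL over 12 steps. Each well combined 100 μL of cell suspension (10^6 CFU/mL) with 100 μL of antibiotic solution and was incubated at 37° C. for 24 h. Then 50 μL of MTT (1 mg/mL) was added for 30 min, and MIC (μg/mL) was read as the lowest concentration inhibiting growth.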
# [6] = tested on: Methicillin resistant Staphylococcus aureus (ATCC 33591); assay: as above; conditions: Staphylococcus aureus ATCC3359, Methicillin resistance; for MIC: ATCC 3359 / ATCC 33591 / MRSA, read-out: MIC MRSA
# Summary of the method: as §1
# [7] = tested on: gentamicin, streptmycin, vancomycin resistant Enterococcus faecalis (ATCC 51299); assay: microbe, parasite or virus in culture; conditions: for MIC VREF: Enterococcus faecalis ATCC51299, vancomycin resistance; for MIC: Enterococcus faecalis, ATCC51299, read-out: MIC VREF
# Summary of the method: as §1
SMILES,MIC CL5137 [1],MIC CL5244 [2],MIC EF [3] [µg/mL],MIC SA [4],MIC BC [5] [µg/mL],MIC MRSA [6],MIC VREF [7] [µg/mL],MIC [1] [µg/mL],MIC [2] [µg/mL],MIC [3] [µg/mL],MIC [4] [µg/mL],MIC [5] [µg/mL],MIC [6] [µg/mL],MIC [7] [µg/mL]
CCCCCCCCCCNC1(C)CC(OC2C(Oc3c4cc5cc3Oc3ccc(cc3Cl)C(O)C3NC(=O)C(NC(=O)C5NC(=O)C(CC(N)=O)NC(=O)C(NC(=O)C(CC(C)C)NC)C(O)c5ccc(c(Cl)c5)O4)c4ccc(O)c(c4)-c4c(O)cc(O)cc4C(C(=O)O)NC3=O)OC(CI)C(O)C2O)OC(C)C1O (centres unmarked) [Vancosamine-N-decyl-glucose-C6-iodo-vancomycin],6.3 µg/mL,0.4< μg/mL,0.08,1.3 µg/mL,1.0,0.32 µg/mL,0.12,,,,,,,
"CN[C@@H](CC(C)C)C(=O)N[C@H]1C(=O)N[C@@H](CC(N)=O)C(=O)N[C@H]2C(=O)NC3C(=O)N[C@H](C(=O)N[C@@H](C(=O)O)c4cc(O)cc(O)c4-c4cc3ccc4O)[C@H](O)c3ccc(c(Cl)c3)Oc3cc2cc(c3OC2OC(CN)C(O)C(O)C2OC2CC(C)(NCc3ccc(-c4ccc(Cl)cc4)cc3)C(O)C(C)O2)Oc2ccc(cc2Cl)[C@H]1O (some centres unmarked) [LXXV, N-4-(4-Chlorophenyl)benzylvancosamine-glucose-C6-amine Vancomycin]",,,,,,,,2,≤ 0.03,≤ 0.03,≤ 0.03,0.16,≤ 0.03,0.63
"CN[C@@H](CC(C)C)C(=O)N[C@H]1C(=O)N[C@@H](CC(N)=O)C(=O)N[C@H]2C(=O)NC3C(=O)N[C@H](C(=O)N[C@@H](C(=O)O)c4cc(O)cc(O)c4-c4cc3ccc4O)[C@H](O)c3ccc(c(Cl)c3)Oc3cc2cc(c3OC2OC(CN=[N+]=[N-])C(O)C(O)C2OC2CC(C)(NCc3ccc(-c4ccc(Cl)cc4)cc3)C(O)C(C)O2)Oc2ccc(cc2Cl)[C@H]1O (some centres unmarked) [LXXIV, N-4-(4-Chlorophenyl)benzylvancosamine-glucose-C6-azide Vancomycin]",,,,,,,,13,0.3,0.16,1,0.32,0.48,0.16
"CN[C@@H](CC(C)C)C(=O)N[C@H]1C(=O)N[C@@H](CC(N)=O)C(=O)N[C@H]2C(=O)NC3C(=O)N[C@H](C(=O)N[C@@H](C(=O)O)c4cc(O)cc(O)c4-c4cc3ccc4O)[C@H](O)c3ccc(c(Cl)c3)Oc3cc2cc(c3OC2OC(CSc3nnnn3-c3ccc(O)cc3)C(O)C(O)C2OC2CC(C)(N)C(O)C(C)O2)Oc2ccc(cc2Cl)[C@H]1O (some centres unmarked) [LXVIII, Glucose-C6-5-thio-1-(4-hydroxyphenyl)-1H-tetrazole Vancomycin]",,,,,,,,> 50,13,2.5,2.5,1.3,2.5,> 5
"CN[C@@H](CC(C)C)C(=O)N[C@H]1C(=O)N[C@@H](CC(N)=O)C(=O)N[C@H]2C(=O)NC3C(=O)N[C@H](C(=O)N[C@@H](C(=O)O)c4cc(O)cc(O)c4-c4cc3ccc4O)[C@H](O)c3ccc(c(Cl)c3)Oc3cc2cc(c3OC2OC(CSc3nnc(NN)n3N)C(O)C(O)C2OC2CC(C)(NCc3ccc(-c4ccc(Cl)cc4)cc3)C(O)C(C)O2)Oc2ccc(cc2Cl)[C@H]1O (some centres unmarked) [LXXXIV, N-4-(4-Chlorophenyl)benzylvancosamine-glucose-C6-5-thio-4-amino-3-hydrazino-1,2,4-triazole Vancomycin]",,,,,,,,6.3,0.2,0.12,0.63,0.08,0.48,0.16
"CNC(CC(C)C)C(=O)NC1C(=O)NC(CC(N)=O)C(=O)NC2C(=O)NC3C(=O)NC(C(=O)NC(C(=O)O)c4cc(O)cc(O)c4-c4cc3ccc4O)C(O)c3ccc(c(Cl)c3)Oc3cc2cc(c3OC2OC(Cn3ccnc3)C(O)C(O)C2OC2CC(C)(N)C(O)C(C)O2)Oc2ccc(cc2Cl)C1O (centres unmarked) [LVII, Glucose-C6-imidazole Vancomycin]",50< μg/mL,50 µg/mL,2.5,1.3 µg/mL,2.5,1.9 µg/mL,5.0,,,,,,,
"CNC(CC(C)C)C(=O)NC1C(=O)NC(CC(N)=O)C(=O)NC2C(=O)NC3C(=O)NC(C(=O)NC(C(=O)O)c4cc(O)cc(O)c4-c4cc3ccc4O)C(O)c3ccc(c(Cl)c3)Oc3cc2cc(c3OC2OC(CSc3nc(N)n[nH]3)C(O)C(O)C2OC2CC(C)(N)C(O)C(C)O2)Oc2ccc(cc2Cl)C1O (centres unmarked) [LVI, Glucose-C6-3-amino-5-mercapto-1,2,4-triazole Vancomycin]",50< μg/mL,1.6 µg/mL,0.63,0.48 µg/mL,1.0,0.63 µg/mL,0.63,,,,,,,
"CN[C@@H](CC(C)C)C(=O)N[C@H]1C(=O)N[C@@H](CC(N)=O)C(=O)N[C@H]2C(=O)NC3C(=O)N[C@H](C(=O)N[C@@H](C(=O)O)c4cc(O)cc(O)c4-c4cc3ccc4O)[C@H](O)c3ccc(c(Cl)c3)Oc3cc2cc(c3OC2OC(CN=[N+]=[N-])C(O)C(O)C2OC2CC(C)(N)C(O)C(C)O2)Oc2ccc(cc2Cl)[C@H]1O (some centres unmarked) [XLVI, Glucose-C6-azide Vancomycin]",,,,,,,,> 50,25,1.3,0.63,1,1.3,2.5
"CCCCCCCCCCNC1(C)CC(OC2C(Oc3c4cc5cc3Oc3ccc(cc3Cl)C(O)C3NC(=O)C(NC(=O)C5NC(=O)C(CC(N)=O)NC(=O)C(NC(=O)C(CC(C)C)NC)C(O)c5ccc(c(Cl)c5)O4)c4ccc(O)c(c4)-c4c(O)cc(O)cc4C(C(=O)O)NC3=O)OC(CNC(=O)c3cnc4ccccc4n3)C(O)C2O)OC(C)C1O (centres unmarked) [LI, Glucose-C6-N-2-quinoxaloyl-vancosamine-N-decyl Vancomycin]",6.3 µg/mL,0.2 µg/mL,0.63,5.0< μg/mL,2.5,5.0< μg/mL,1.3,,,,,,,
"CCCCCCCCCCNC1(C)CC(OC2C(Oc3c4cc5cc3Oc3ccc(cc3Cl)[C@@H](O)[C@@H](NC(=O)[C@H](CC(C)C)NC)C(=O)N[C@@H](CC(N)=O)C(=O)N[C@H]5C(=O)NC3C(=O)N[C@H](C(=O)N[C@@H](C(=O)O)c5cc(O)cc(O)c5-c5cc3ccc5O)[C@H](O)c3ccc(c(Cl)c3)O4)OC(CSc3nc4cc(Cl)ccc4s3)C(O)C2O)OC(C)C1O (some centres unmarked) [LXXX, N-Decylvancosamine-glucose-C6-2-thio-5-chlorobenzothiazole Vancomycin]",,,,,,,,50,2.4,1.3,> 5,5,5,2.5
"CCCCCCCCCCNC1(C)CC(OC2C(Oc3c4cc5cc3Oc3ccc(cc3Cl)C(O)C3NC(=O)C(NC(=O)C5NC(=O)C(CC(N)=O)NC(=O)C(NC(=O)C(CC(C)C)NC)C(O)c5ccc(c(Cl)c5)O4)c4ccc(O)c(c4)-c4c(O)cc(O)cc4C(C(=O)O)NC3=O)OC(CSc3nc(N)n[nH]3)C(O)C2O)OC(C)C1O (centres unmarked) [LXXII, Vancosamine-N-decyl-glucose-C6-S-3-amino-5-mercapto-1,2,4-triazole Vancomycin]",6.3 µg/mL,0.3 µg/mL,0.32,3.8 µg/mL,2.5,1.9 µg/mL,0.32,,,,,,,
